Test results published in patent US12257247B2 (Monte Rosa Therapeutics AG, priority 2023, dated 2025).
Read-outs that look alike come from different tables or passages of the source.

Target: T1, VAV1 (Homo sapiens, UniProt P15498+Q96SW2)
T1 construct: A heterozygous VAV1 C-terminal HiBiT knock-in pool was generated at Monte Rosa Therapeutics from a clonal Jurkat cell; endogenous in cells; host or cells: Jurkat clone stably expressing LgBiT, homozygous GSPT1-G575N; heterozygous VAV1-HiBiT knock-in pool
Assay: VAV1 degradation activity, VAV1-HiBiT knock-in Jurkat luminescence assay (Example A, Table 1)
Format: cell-based
Conditions: VAV1-HiBiT knock-in Jurkat cells, luminescence read at 6 and 24 hours; for Dmax: Jurkat
Experimental: Cells were plated at 10,000 cells per well using Multiflo (BioTek) or Multi Drop Combi (Thermo Fisher) in 384-well white solid bottom plates (Corning, 3570BC) in 25 ul volume in RPMI 1640 media (Thermo Fischer, 22400105) containing 10% FBS (Corning, 35-075-CV), 1% Penicillin/Streptomycin (ThermoFisher Scientific, 15140-122), and 1% Endurazine (Nano-Glo Endurazine Live Cell Substrate (Promega, N2571)). Cells were incubated for ˜16 hours at 37° C., 5% CO2. 25 nL of a compound at 10 μM were dosed into the plate using an Echo® 650 liquid handler (Labcyte). Cells were incubated at 37° C., 5% CO2 and signal was read at 6 and 24 hours after compound addition on a Pherastar FSX using “LUM plus” optic module.
Analysis was performed in Scinamic (Scinamic, Cambridge, MA). Luminescence response (R) was calculated by the formula: response=100*(S−N)/(P−N) where S is the signal of the well, N and P the mean negative and positive control values respectively of the same plate. The luminescence response was then fitted in Scinamic using a 3-parameter agonist logistic fit (hillslope=1, EC50>0, top/bottom unconstrained).

[1] = read-out: VAV1 DC50 (nM), class

| SMILES | Dmax (read-out: VAV1 Dmax %) | Dmax (read-out: VAV1 Dmax %, class) | DC50 (read-out: VAV1 DC50) | DC50 [1] | VAV1 Dmax % |
| --- | --- | --- | --- | --- | --- |
| O=C1CC[C@](F)(c2cccc(-c3ccc(N4CCCCC4=O)cc3)c2Cl)C(=O)N1 (single isomer, unassigned) [Compound 367] | 90.6% | > 90% | 706 nM | 100 to 1000 nM |  |
| O=C1CC[C@@](F)(c2cccc(-c3ccc(N4CCCCC4=O)cc3)c2Cl)C(=O)N1 (single isomer, unassigned) [Compound 368] | 98.5% | > 90% | 1.84 nM | ≤ 100 nM |  |
| CCc1cc(-c2cccc(C3CCC(=O)NC3=O)c2Cl)ccc1N (stereo not shown) [Compound 101] | 96% | > 90% | 12.3 nM | ≤ 100 nM |  |
| Nc1ccc(-c2cccc(C3CCC(=O)NC3=O)c2Cl)cc1Cl (stereo not shown) [Compound 105] | 97.7% | > 90% | 18.1 nM | ≤ 100 nM |  |
| O=C1CCC(c2cccc(-c3ccc(C4COC(=O)N4)cc3)c2Cl)C(=O)N1 (stereo not shown) [Compound 106] | 14% | < 60% | ≥ 10000 nM | > 1000 nM |  |
| O=C1CCC(c2cccc(-c3ccc(C4COC(=O)N4)c(F)c3)c2Cl)C(=O)N1 (stereo not shown) [Compound 107] | 27% | < 60% | ≥ 10000 nM | > 1000 nM |  |
| COc1ccc(-c2cccc(C3CCC(=O)NC3=O)c2Cl)cc1OC(F)F (stereo not shown) [Compound 108] | 47.8% | < 60% | ≥ 10000 nM | > 1000 nM |  |
| N#Cc1cc(-c2cccc(C3CCC(=O)NC3=O)c2Cl)ccc1O (stereo not shown) [Compound 112] | 78.2% | 60 to 90% | 119 nM | 100 to 1000 nM |  |
| Nc1ccc(-c2cccc(C3CCC(=O)NC3=O)c2Cl)cc1OC(F)F (stereo not shown) [Compound 113] | 64.6% | 60 to 90% | 482 nM | 100 to 1000 nM |  |
| CNc1ccc(-c2cccc(C3CCC(=O)NC3=O)c2Cl)cc1C (stereo not shown) [Compound 116] | 96% | > 90% | 22.3 nM | ≤ 100 nM |  |
| Nc1ccnn1Cc1ccc(-c2cccc(C3CCC(=O)NC3=O)c2Cl)cc1 (stereo not shown) [Compound 118] | 89.7% | 60 to 90% | 39.7 nM | ≤ 100 nM |  |
| O=C1CCC(c2cccc(-c3ccc(Cn4cccn4)cc3)c2Cl)C(=O)N1 (stereo not shown) [Compound 120] | 94% | > 90% | 15.1 nM | ≤ 100 nM |  |
| COc1cc(-c2cccc(C3CCC(=O)NC3=O)c2Cl)ccc1C(F)F (stereo not shown) [Compound 125] | 75.9% | 60 to 90% | 1530 nM | > 1000 nM |  |
| Cc1cc(C)n(Cc2ccc(-c3cccc(C4CCC(=O)NC4=O)c3Cl)cc2)n1 (stereo not shown) [Compound 127] | 92.4% | > 90% | 39 nM | ≤ 100 nM |  |
| Cc1cc(-c2cccc(C3CCC(=O)NC3=O)c2Cl)ccc1N (stereo not shown) [Compound 131] | 94.9% | > 90% | 7.27 nM | ≤ 100 nM |  |
| COc1cc(-c2cccc(C3CCC(=O)NC3=O)c2Cl)ccc1C (stereo not shown) [Compound 132] | 84.5% | 60 to 90% | 475 nM | 100 to 1000 nM |  |
| N#Cc1ccc(-c2cccc(C3CCC(=O)NC3=O)c2Cl)cc1N (stereo not shown) [Compound 133] | 79% | 60 to 90% | 427 nM | 100 to 1000 nM |  |
| COc1cc(OC(F)F)ccc1-c1cccc(C2CCC(=O)NC2=O)c1Cl (stereo not shown) [Compound 137] | 63.8% | 60 to 90% | 7440 nM | > 1000 nM |  |
| Nc1cc(-c2cccc(C3CCC(=O)NC3=O)c2Cl)ccc1Cl (stereo not shown) [Compound 138] | 84.6% | 60 to 90% | 604 nM | 100 to 1000 nM |  |
| COc1ccc(-c2cccc(C3CCC(=O)NC3=O)c2Cl)cc1C#N (stereo not shown) [Compound 139] | 25.2% | < 60% | ≥ 10000 nM | > 1000 nM |  |
| O=C1CCC(c2cccc(-c3ccc(Cn4ccnc4)cc3)c2Cl)C(=O)N1 (stereo not shown) [Compound 140, 3-(4′-((1H-imidazol-1-yl)methyl)-2-chloro-[1,1′-biphenyl]-3-yl)piperidine-2,6-dione] | 83.8% | 60 to 90% | 52.2 nM | ≤ 100 nM |  |

Results, then the molecule that gave them:

| Dmax (read-out: VAV1 Dmax %) | Dmax (read-out: VAV1 Dmax %, class) | DC50 (read-out: VAV1 DC50) | DC50 [1] | VAV1 Dmax % | SMILES |
| --- | --- | --- | --- | --- | --- |
| 84.1% | 60 to 90% | 240 nM | 100 to 1000 nM |  | Nc1nccn1Cc1ccc(-c2cccc(C3CCC(=O)NC3=O)c2Cl)cc1 (stereo not shown) [Compound 102] |
| 93.6% | > 90% | 45.4 nM | ≤ 100 nM |  | O=C1CCC(c2cccc(-c3ccc(OCc4ccccn4)cc3)c2Cl)C(=O)N1 (stereo not shown) [Compound 103] |
| 81.7% | 60 to 90% | 59.7 nM | ≤ 100 nM |  | CN1CCN(CCOc2ccc(-c3cccc(C4CCC(=O)NC4=O)c3Cl)cc2)CC1 (stereo not shown) [Compound 104] |
| 66.4% | 60 to 90% | 678 nM | 100 to 1000 nM |  | O=C1CCC(c2cccc(-c3ccc(OC4CCOC4)cc3)c2Cl)C(=O)N1 (stereo not shown) [Compound 109] |
| 89.2% | 60 to 90% | 22.3 nM | ≤ 100 nM |  | Nc1ncn(Cc2ccc(-c3cccc(C4CCC(=O)NC4=O)c3Cl)cc2)n1 (stereo not shown) [Compound 110] |
| 87.8% | 60 to 90% | 49.2 nM | ≤ 100 nM |  | Cc1nccn1Cc1ccc(-c2cccc(C3CCC(=O)NC3=O)c2Cl)cc1 (stereo not shown) [Compound 111] |
| 80.9% | 60 to 90% | 125 nM | 100 to 1000 nM |  | CCNc1ccc(-c2cccc(C3CCC(=O)NC3=O)c2Cl)cc1 (stereo not shown) [Compound 115] |
| 72% | 60 to 90% | 353 nM | 100 to 1000 nM |  | O=C1CCC(c2cccc(-c3ccc(OCCCO)cc3)c2Cl)C(=O)N1 (stereo not shown) [Compound 117] |
| 87.1% | 60 to 90% | 69.3 nM | ≤ 100 nM |  | O=C1CCC(c2cccc(-c3ccc(OCC4CCCO4)cc3)c2Cl)C(=O)N1 (stereo not shown) [Compound 119] |
| 94% | > 90% | 11 nM | ≤ 100 nM |  | O=C1CN(CCOc2ccc(-c3cccc(C4CCC(=O)NC4=O)c3Cl)cc2)CCN1 (stereo not shown) [Compound 121] |
| 81.3% | 60 to 90% | 48.8 nM | ≤ 100 nM |  | O=C1CCC(c2cccc(-c3ccc(CCN4CCOCC4)cc3)c2Cl)C(=O)N1 (stereo not shown) [Compound 122] |
| 96.3% | > 90% | 11.6 nM | ≤ 100 nM |  | O=C1CCC(c2cccc(-c3ccc(OCc4cccnc4)cc3)c2Cl)C(=O)N1 (stereo not shown) [Compound 123] |
| 98.8% | > 90% | 4.04 nM | ≤ 100 nM |  | O=C1CCC(c2cccc(-c3ccc(OCc4ccncc4)cc3)c2Cl)C(=O)N1 (stereo not shown) [Compound 124] |
| 91.4% | > 90% | 127 nM | 100 to 1000 nM |  | COCCCOc1ccc(-c2cccc(C3CCC(=O)NC3=O)c2Cl)cc1 (stereo not shown) [Compound 126] |
| 81.1% | 60 to 90% | 67.4 nM | ≤ 100 nM |  | CC(=O)Nc1ccc(-c2cccc(C3CCC(=O)NC3=O)c2Cl)cc1 (stereo not shown) [Compound 128] |
| 68.2% | 60 to 90% | 240 nM | 100 to 1000 nM |  | CC(C)Nc1ccc(-c2cccc(C3CCC(=O)NC3=O)c2Cl)cc1 (stereo not shown) [Compound 129, 3-(2-chloro-4′-(isopropylamino)-[1,1′-biphenyl]-3-yl)piperidine-2,6-dione] |
| 84.6% | 60 to 90% | 37.1 nM | ≤ 100 nM |  | Nc1ccc(-c2cccc(C3CCC(=O)NC3=O)c2Cl)cc1 (stereo not shown) [Compound 130, 3-(4′-amino-2-chloro-[1,1′-biphenyl]-3-yl)piperidine-2,6-dione] |
| 85.7% | > 90% | 90.9 nM |  | 76.45% | CNc1ccc(-c2cccc(C3CCC(=O)NC3=O)c2Cl)cc1 (stereo not shown) [Compound 134, 3-(2-chloro-4′-(methylamino)-[1,1′-biphenyl]-3-yl)piperidine-2,6-dione] |
| 34.9% | < 60% | ≥ 10000 nM | > 1000 nM |  | CN(C)CCOc1ccc(-c2cccc(C3CCC(=O)NC3=O)c2Cl)cc1 (stereo not shown) [Compound 135] |
| 40.9% | < 60% | ≥ 10000 nM | > 1000 nM |  | O=C1CCC(c2cccc(-c3ccc(OCCN4CCCC4)cc3)c2Cl)C(=O)N1 (stereo not shown) [Compound 136] |
| 87.6% | 60 to 90% | 99.2 nM | ≤ 100 nM |  | O=C1CCC(c2cccc(-c3ccc(OCC4CCOC4)cc3)c2Cl)C(=O)N1 (stereo not shown) [Compound 141] |
| 69.9% | 60 to 90% | 705 nM | 100 to 1000 nM |  | N#Cc1ccc(-c2cccc(C3CCC(=O)NC3=O)c2Cl)cc1 (stereo not shown) [Compound 142] |
